# Source: article PMC6956804, “Potent antibacterial activity of MSI-1 derived from the magainin 2 peptide against drug-resistant bacteria” (Theranostics, 2020)
# Peptide text beside a SMILES is read from it.
# Test system: penicillin resistant-E. coli isolates
# Assay: Acute systemic E. coli infection in mice
# Type: in vivo, BALB/c mice
# Conditions: for survival rate enhanced compared with the model group: doses 10, 5 and 2.5 mg/kg
# Experimental: BALB/c mice (5-6 weeks) were purchased from the Laboratory Animal Center of Yangzhou University (Yangzhou, Jiangsu, China) and intraperitoneally (ip) injected with 500 μl (5× 10^8 CFU/ml) of penicillin resistant-E. coli isolates. Mice in MSI-1 treated groups (10, 5 and 2.5 mg/kg, n=16/group) and polymyxin treated group (5 mg/kg) were administered after 2 h post bacterial inoculation. After 12 h, six mice in each group were anesthetized with pentobarbital sodium (50 mg/kg body weight, i.p) and euthanized by cervical dislocation to count bacterial colonies in blood, lung, spleen, kidney and liver. Lung homogenates were collected for Gram staining. Moreover, serum TNF-α and IL-6 were measured by ELISA kits. The procedure of H&E staining for mouse lung was adapted from a published report. The survival and weight of other mice were monitored daily up to 7 days.
structure (smiles),measurement,setting,value
CC[C@H](C)[C@H](NC(=O)CN)C(=O)N[C@@H](Cc1c[nH]c2ccccc12)C(=O)N[C@@H](CCCCN)C(=O)N[C@@H](Cc1ccccc1)C(=O)N[C@@H](CC(C)C)C(=O)N[C@@H](CCCCN)C(=O)N[C@@H](CCCCN)C(=O)N[C@@H](C)C(=O)N[C@@H](CCCCN)C(=O)N[C@@H](CCCCN)C(=O)N[C@@H](Cc1ccccc1)C(=O)N[C@@H](Cc1c[nH]c2ccccc12)C(=O)N[C@@H](CCCCN)C(N)=O [MSI-1] (H-GIWKFLKKAKKFWK-NH2),reduction in CFU (blood and organs),"10 mg/kg, 12 h",approximately 2 log unit
same,decreased rates of serum IL-6 and TNF-α,"10 mg/kg, 12 h post-infection, ELISA",70%~80%
same,body weight,"7 days, polymyxin 5 mg/kg",marked weight maintenance effect
same,survival rate enhanced compared with the model group,"first of three values, given 2 h post inoculation, 7 days",80%
same,survival rate enhanced compared with the model group,"second of three values, 7 days",50%
same,survival rate enhanced compared with the model group,"third of three values, 7 days",30%
